Reference: article PMC3742231 (International Journal of Molecular Sciences, 2013)
Read-outs that look alike come from different tables or passages of the source.

How the values were obtained:
[1] = biological target: T1, CYP2A6 (Homo sapiens, UniProt P11509); assay: N-in-one CYP inhibition assay in human liver microsomes; conditions: read-out: IC50, Coumarin 7-hydroxylation; human liver microsomes, probe 2 μM
T1 sequence (P11509 1-494): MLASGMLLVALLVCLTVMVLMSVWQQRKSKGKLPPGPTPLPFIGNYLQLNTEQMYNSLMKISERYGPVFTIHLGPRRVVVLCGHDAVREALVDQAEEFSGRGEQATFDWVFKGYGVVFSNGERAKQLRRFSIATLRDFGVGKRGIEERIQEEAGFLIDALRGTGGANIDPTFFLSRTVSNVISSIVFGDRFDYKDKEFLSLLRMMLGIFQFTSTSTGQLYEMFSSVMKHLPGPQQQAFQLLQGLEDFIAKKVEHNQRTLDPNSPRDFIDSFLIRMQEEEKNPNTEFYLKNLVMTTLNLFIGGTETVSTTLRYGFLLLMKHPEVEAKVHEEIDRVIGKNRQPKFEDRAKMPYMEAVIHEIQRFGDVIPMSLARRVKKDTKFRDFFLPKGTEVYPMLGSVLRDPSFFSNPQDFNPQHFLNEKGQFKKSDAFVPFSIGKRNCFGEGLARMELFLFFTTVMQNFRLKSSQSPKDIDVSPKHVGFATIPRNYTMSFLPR
Experimental: (§1) Human liver microsomes were prepared and pooled from ten human livers (HL20–24,28–32) as previously described. Human liver samples were obtained from the University Hospital of Oulu as surplus tissue from cadaver kidney transplant donors. The collection of surplus tissue was approved by the Ethics Committee of the Medical Faculty of the University of Oulu, Finland. All donors were Caucasians ranging in age from 21 to 62 years; four were female and six were male. Detailed information on each donor has been published previously. Protein concentrations were measured using the Bradford method.
(§2) In vitro inhibition of CYP isoforms was first assessed using the N-in-one approach (also called the cocktail approach). CYP-selective substrates and reactions are listed in Table 1; concentrations were roughly at or below the respective Michaelis-Menten coefficients. […] A Micromass LCT time-of-flight high-resolution mass spectrometer (Micromass Ltd., Manchester, UK) equipped with a Z-spray electrospray ionization source was used for the monitoring of CYP-selective reactions. Integrated mass chromatogram peak areas were normalized versus internal standards before comparing metabolites in different preparations. More details of the assay are available in previous publications.

[2] = biological target: CYP2E1 (Homo sapiens, UniProt P05181); assay: as above; conditions: read-out: IC50, Chlorzoxazone 6-hydroxylation; human liver microsomes, probe 6 μM
Experimental: as §1, §2

[3] = repeated oral 60-mg dosing of ospemifene, no reference given; read-out: clinical Cmax; cited from earlier work
[4] = metabolites of ospemifene; cited from earlier work
[5] = biological target: CYP3A4 (Homo sapiens, UniProt P08684); assay: biochemical; conditions: human liver microsomes
Experimental: as §1, §2

[6] = biological target: T2, CYP1A2 (Homo sapiens, UniProt P05177); assay: biochemical; conditions: read-out: IC50, Melatonin 6-hydroxylation; human liver microsomes, probe 4 μM
T2 sequence (P05177 1-516): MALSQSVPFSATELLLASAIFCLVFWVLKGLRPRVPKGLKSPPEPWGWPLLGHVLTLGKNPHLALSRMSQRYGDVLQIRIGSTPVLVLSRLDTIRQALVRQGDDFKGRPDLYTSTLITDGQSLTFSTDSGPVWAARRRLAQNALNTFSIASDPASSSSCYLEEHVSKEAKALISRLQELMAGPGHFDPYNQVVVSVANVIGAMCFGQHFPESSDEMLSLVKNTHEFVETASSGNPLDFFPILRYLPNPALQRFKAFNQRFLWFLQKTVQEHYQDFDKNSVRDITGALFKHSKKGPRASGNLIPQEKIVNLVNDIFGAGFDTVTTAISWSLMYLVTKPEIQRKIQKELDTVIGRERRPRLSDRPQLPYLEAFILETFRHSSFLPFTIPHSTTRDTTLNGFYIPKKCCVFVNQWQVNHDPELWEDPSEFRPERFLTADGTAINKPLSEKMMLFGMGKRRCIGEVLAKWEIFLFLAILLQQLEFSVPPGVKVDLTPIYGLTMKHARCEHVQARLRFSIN
Experimental: as §1, §2

[7] = system: CYP-mediated enzyme activities; assay: N-in-one CYP inhibition assay, summary for all other CYP-mediated activities; type: in vitro ADME; conditions: human liver microsomes; CYPs other than those named in the paragraph
[8] = biological target: T3, CYP2C8 (Homo sapiens, UniProt P10632); assay: N-in-one CYP inhibition assay in human liver microsomes; type of inhibition; conditions: read-out: IC50, Amodiaquine desethylation; human liver microsomes, probe 2 μM
T3 sequence (P10632 1-490): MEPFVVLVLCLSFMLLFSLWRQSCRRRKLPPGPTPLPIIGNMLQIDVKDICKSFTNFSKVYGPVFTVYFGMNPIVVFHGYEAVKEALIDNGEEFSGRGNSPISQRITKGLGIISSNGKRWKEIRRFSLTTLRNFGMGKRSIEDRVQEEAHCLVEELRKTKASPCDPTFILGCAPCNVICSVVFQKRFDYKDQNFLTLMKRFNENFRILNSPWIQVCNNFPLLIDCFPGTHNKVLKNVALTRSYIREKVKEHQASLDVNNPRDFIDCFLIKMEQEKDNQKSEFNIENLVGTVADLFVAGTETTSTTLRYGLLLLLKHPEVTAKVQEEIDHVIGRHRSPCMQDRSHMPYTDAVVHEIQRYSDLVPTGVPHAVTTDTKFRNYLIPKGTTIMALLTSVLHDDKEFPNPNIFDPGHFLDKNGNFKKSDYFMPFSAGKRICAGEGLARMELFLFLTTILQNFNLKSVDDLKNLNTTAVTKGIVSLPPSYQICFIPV
Experimental: as §1, §2
(§3) Dixon, Lineweaver-Burk, Hanes, and Hofstee plots were used for the analysis of the type of inhibition.

[9] = biological target: CYP2D6 (Homo sapiens, UniProt P10635); assay: as above; conditions: read-out: IC50, Dextromethorphan O-demethylation; human liver microsomes, probe 0.2 μM
Experimental: as §1, §2, §3

[10] = biological target: CYP2C9 (Homo sapiens, UniProt P11712); conditions: read-out: IC50, Tolbutamide methylhydroxylation; human liver microsomes, probe 4 μM
Experimental: as §1, §2, §3

[11] = biological target: CYP2C19 (Homo sapiens, UniProt P33261); assay: biochemical; conditions: human liver microsomes, probe 2 μM
Experimental: as §1, §2, §3

[12] = biological target: T4, CYP2B6 (Homo sapiens, UniProt P20813); assay: biochemical; conditions: read-out: IC50, Bupropion hydroxylation; human liver microsomes, probe 1 μM
T4 sequence (P20813 1-491): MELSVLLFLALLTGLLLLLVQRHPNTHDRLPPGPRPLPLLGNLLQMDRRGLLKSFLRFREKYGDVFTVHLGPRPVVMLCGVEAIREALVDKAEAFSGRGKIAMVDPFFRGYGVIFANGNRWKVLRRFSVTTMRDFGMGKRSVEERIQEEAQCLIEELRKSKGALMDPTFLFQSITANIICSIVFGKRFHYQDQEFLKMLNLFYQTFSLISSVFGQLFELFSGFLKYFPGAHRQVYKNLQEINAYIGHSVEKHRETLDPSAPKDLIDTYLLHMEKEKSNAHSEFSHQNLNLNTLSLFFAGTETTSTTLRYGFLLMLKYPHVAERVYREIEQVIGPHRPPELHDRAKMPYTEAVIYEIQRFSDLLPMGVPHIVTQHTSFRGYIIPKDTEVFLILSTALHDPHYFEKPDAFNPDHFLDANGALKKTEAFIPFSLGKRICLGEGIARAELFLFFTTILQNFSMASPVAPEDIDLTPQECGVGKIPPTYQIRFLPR
Experimental: as §1, §2, §3

[13] = clinical; conditions: female, human, in vivo
Description: (§4) Studies 1 and 2 were open-label, two-period, single-center, Phase 1, balanced, crossover studies in healthy postmenopausal women. […] Study 3 was a Phase 1, open-label, single-center, balanced, two-period, crossover study in healthy postmenopausal women who were not homozygous for the CYP2C19*2 genotype (CYP2C19*2 indicates the CYP2C19 variant that is associated with reduced activity). In each study, equal numbers of subjects were assigned to the two different treatment sequences.
(§5) The study periods were separated by ≥14 days.
(§6) With the exception of tmax, which was analyzed using the nonparametric Wilcoxon’s test, pharmacokinetic parameters were analyzed after log-transformation using analysis of variance (ANOVA), with sequence, period, and treatment as fixed effects.

[14] = Overall safety in the three clinical studies; type: in vivo, human; conditions: healthy postmenopausal women, with and without ospemifene
Description: All experiments with human subjects were based on voluntary informed consent and the clinical study protocols had appropriate ethical and regulatory approval. Subjects were asked to immediately report any significant adverse events (AEs) that occurred during the study; minor AEs were reported at clinic visits. AEs were coded and classified according to the Medical Dictionary for Regulatory Activities.

[15] = female, human, in vivo, 150 mg
Description: as §4, §5, §6

[16] = Study 2: effect of ospemifene on bupropion pharmacokinetics; conditions: for CL/F, mean (CV%) / t1/2, mean (CV%) / AUCt, mean (CV%) / Cmax, mean (CV%) / tmax, median (range) / AUC∞, mean (CV%): 150 mg bupropion; for AUCt, mean (CV%): 0-96 h; for AUC∞, mean (CV%): N = 16
Description: as §4, §5, §6

[17] = Study 3: effect of ospemifene on omeprazole pharmacokinetics (metabolic ratios)
Description: as §4
The study periods were separated by ≥14 days. In both study periods, blood samples for determination of plasma omeprazole, 5-hydroxyomeprazole, and omeprazole sulfone concentrations were collected before and at 1, 2, 3, 4, 6, and 8 h after omeprazole administration.
In Study 3, concentrations of omeprazole, 5-hydroxyomeprazole, and omeprazole sulfone were determined using a validated LC-MS/MS method. Pharmacokinetic parameters were analyzed after log-transformation using ANOVA, with sequence, period, and treatment as fixed effects. Primary pharmacokinetic parameters included the metabolic ratios of omeprazole/5-hydroxyomeprazole and omeprazole/omeprazole sulfone, based on plasma concentrations at 3 h, which reflected CYP2C19 and CYP3A4 activities, respectively.

[18] = 10 mg racemic warfarin; for AUC∞, mean (CV%): N = 16
Description: as §4
The study periods were separated by ≥3 weeks.
as §6

[19] = cited from earlier work

CYP3A4, sequence (P08684 whole entry): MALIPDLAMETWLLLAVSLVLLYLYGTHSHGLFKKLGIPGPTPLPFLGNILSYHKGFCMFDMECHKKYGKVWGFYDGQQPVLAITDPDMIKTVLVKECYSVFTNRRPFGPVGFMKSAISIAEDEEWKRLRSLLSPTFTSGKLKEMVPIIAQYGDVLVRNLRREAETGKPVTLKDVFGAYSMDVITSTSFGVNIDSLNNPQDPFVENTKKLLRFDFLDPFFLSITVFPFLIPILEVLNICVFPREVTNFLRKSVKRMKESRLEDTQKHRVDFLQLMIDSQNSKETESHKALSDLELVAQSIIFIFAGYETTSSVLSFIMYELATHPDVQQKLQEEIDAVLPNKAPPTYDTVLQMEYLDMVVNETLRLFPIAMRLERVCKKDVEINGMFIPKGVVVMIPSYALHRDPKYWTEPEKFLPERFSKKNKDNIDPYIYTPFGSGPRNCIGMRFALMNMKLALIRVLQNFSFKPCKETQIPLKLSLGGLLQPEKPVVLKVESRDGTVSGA
CYP2C19, sequence (P33261 whole entry): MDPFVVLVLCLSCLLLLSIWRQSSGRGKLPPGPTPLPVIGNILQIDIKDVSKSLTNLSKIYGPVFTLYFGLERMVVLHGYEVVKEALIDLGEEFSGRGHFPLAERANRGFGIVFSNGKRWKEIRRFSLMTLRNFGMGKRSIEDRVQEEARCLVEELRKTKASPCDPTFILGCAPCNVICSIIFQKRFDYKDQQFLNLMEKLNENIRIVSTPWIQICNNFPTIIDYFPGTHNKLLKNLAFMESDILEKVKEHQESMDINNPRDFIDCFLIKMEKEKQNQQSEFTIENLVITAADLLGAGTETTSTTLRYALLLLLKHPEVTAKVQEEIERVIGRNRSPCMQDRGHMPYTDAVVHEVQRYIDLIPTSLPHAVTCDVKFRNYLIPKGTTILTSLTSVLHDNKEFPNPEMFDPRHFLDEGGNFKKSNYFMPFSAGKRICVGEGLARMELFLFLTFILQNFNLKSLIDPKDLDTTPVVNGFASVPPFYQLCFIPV
CYP2E1, sequence (P05181 whole entry): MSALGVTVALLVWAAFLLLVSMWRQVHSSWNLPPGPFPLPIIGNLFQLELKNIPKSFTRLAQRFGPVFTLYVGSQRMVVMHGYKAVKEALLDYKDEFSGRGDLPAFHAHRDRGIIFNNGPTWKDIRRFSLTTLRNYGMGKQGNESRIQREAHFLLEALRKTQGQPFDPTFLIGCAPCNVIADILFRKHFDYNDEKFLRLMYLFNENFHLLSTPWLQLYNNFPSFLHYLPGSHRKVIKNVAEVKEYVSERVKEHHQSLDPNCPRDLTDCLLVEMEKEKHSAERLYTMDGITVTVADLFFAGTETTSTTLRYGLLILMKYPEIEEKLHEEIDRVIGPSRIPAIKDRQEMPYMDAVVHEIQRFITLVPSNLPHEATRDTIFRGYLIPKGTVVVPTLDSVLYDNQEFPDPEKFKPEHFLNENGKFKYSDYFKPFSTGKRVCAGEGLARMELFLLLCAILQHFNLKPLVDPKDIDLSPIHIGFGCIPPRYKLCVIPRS
CYP2D6, sequence (P10635 whole entry): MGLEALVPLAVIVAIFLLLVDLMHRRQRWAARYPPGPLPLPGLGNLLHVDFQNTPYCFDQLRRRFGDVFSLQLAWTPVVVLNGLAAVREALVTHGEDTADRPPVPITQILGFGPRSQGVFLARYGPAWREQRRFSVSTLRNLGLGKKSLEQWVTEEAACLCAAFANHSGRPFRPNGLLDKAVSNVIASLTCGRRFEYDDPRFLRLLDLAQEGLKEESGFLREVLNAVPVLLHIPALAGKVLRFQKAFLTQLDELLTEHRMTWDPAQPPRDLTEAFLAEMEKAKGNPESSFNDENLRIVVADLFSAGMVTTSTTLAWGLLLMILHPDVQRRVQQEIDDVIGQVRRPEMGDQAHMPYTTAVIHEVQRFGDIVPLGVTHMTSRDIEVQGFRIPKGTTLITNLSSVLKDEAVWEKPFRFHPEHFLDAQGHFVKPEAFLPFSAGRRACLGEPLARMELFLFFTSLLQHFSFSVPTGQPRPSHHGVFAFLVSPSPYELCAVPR
CYP2C9, sequence (P11712 whole entry): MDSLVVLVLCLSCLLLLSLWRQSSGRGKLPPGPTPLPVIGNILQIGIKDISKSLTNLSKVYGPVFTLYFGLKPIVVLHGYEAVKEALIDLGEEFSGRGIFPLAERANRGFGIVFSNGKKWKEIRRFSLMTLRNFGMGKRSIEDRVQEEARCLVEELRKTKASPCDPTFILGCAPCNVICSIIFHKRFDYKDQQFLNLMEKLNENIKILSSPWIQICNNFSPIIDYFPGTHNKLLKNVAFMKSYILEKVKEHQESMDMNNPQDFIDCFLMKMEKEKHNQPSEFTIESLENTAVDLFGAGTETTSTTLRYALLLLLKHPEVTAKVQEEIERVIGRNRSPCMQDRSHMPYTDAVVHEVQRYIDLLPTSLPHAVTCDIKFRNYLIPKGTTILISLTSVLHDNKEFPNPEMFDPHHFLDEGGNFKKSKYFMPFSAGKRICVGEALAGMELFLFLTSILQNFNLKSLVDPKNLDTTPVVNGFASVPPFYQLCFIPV

Structure (SMILES): OCCOc1ccc(/C(=C(/CCCl)c2ccccc2)c2ccc(O)cc2)cc1 [4-Hydroxy-ospemifene, 4-hydroxyospemifene]
- IC50 [1]: > 100 µM
- IC50 [2]: > 100 µM
- Cmax [3]: ~300 nM
- share of the total metabolites [4]: roughly 70%
- IC50 ([5]; read-out: IC50, Midazolam 1′-hydroxylation, probe 0.4 μM): > 100 µM
- IC50 ([5]; read-out: IC50, Omeprazole 3-hydroxylation, probe 2 μM): 50 µM
- IC50 ([5]; read-out: IC50, Omeprazole sulfoxidation, probe 2 μM): 35.9 µM
- IC50 ([5]; read-out: IC50, Testosterone 6β-hydroxylation, probe 1 μM): > 100 µM
- IC50 [6]: > 100 µM
- IC50 [7]: > 25 µM
- IC50 [8]: 27.7 µM
- IC50 [9]: 25.5 µM
- IC50 [10]: 1.1 µM
- IC50 ([11]; read-out: IC50, Omeprazole 5-hydroxylation): 15.3 µM
- IC50 ([11]; read-out: IC50, Omeprazole demethylation): 19.7 µM
- IC50 [12]: 26.5 µM

Structure (SMILES): CC(NC(C)(C)C)C(=O)c1cccc(Cl)c1 (centres unmarked) [Bupropion, bupropion]
- Tmax [13]: 3 h
- Cmax ([13]; 150 mg): 74.9 ng/mL
- Tmax ([13]; 150 mg): 3.5 h
- half-life ([13]; 150 mg): 30.8 h
- Tolerability [14]: well tolerated
- AUCt, mean (CV%) [15]: 0.85 (33.7) μg h/mL
- AUC∞, mean (CV%) [15]: 0.90 (32.3) μg h/mL
- CL/F, mean (CV%) ([16]; OSP (+)): 230 (38.1) mL/h
- t1/2, mean (CV%) ([16]; OSP (+)): 29.5 (26.7) h
- CL/F, mean (CV%) ([16]; OSP (−)): 185 (38.1) mL/h

Structure (SMILES): C[C@H]1NC(C)(C)CO[C@]1(O)c1cccc(Cl)c1 [Hydroxybupropion, hydroxybupropion]
- AUCt, mean (CV%) ([16]; OSP (+)): 14.5 (31.7) μg h/mL
- AUCt, mean (CV%) ([16]; OSP (−)): 14.3 (28.1) μg h/mL
- Cmax, mean (CV%) ([16]; OSP (+)): 462 (29.0) ng/mL
- t1/2, mean (CV%) ([16]; OSP (+)): 21.2 (18.0) h
- tmax, median (range) ([16]; OSP (+)): 6.1 (5–8) h
- AUC∞, mean (CV%) ([16]; OSP (+) 60 mg once daily): 15.2 (32.4) μg h/mL
- Cmax, mean (CV%) ([16]; OSP (−)): 398 (30.6) ng/mL
- t1/2, mean (CV%) ([16]; OSP (−)): 26.7 (18.8) h
- tmax, median (range) ([16]; OSP (−)): 6.0 (5–24) h
- AUC∞, mean (CV%) ([16]; OSP (−)): 15.5 (29.4) μg h/mL
- Ratio of geometric least square means of AUC∞ (90% CI) ([16]; with and without ospemifene pretreatment): 0.977 (0.921–1.036)

Structure (SMILES): COc1ccc2[nH]c([S+]([O-])Cc3ncc(C)c(OC)c3C)nc2c1 (centres unmarked) [Omeprazole, omeprazole]
- Ratio ospemifene (+)/ospemifene (−) of metabolic ratio Omeprazole/5-hydroxyomeprazole (90% CI) ([17]; 3 h conc.): 0.97 (0.77–1.22)
- Ratio ospemifene (+)/ospemifene (−) of metabolic ratio Omeprazole/Omeprazole sulfone (90% CI) ([17]; 3 h conc.): 0.97 (0.67–1.41)
- Ratio ospemifene (+)/ospemifene (−) of metabolic ratio Omeprazole/5-hydroxyomeprazole (90% CI) ([17]; AUCt 0 to 8 h): 0.97 (0.88–1.08)
- Ratio ospemifene (+)/ospemifene (−) of metabolic ratio Omeprazole/Omeprazole sulfone (90% CI) ([17]; AUCt 0 to 8 h): 1.00 (0.88–1.15)
- Tolerability [14]: well tolerated

Structure (SMILES): CC(=O)C[C@H](c1ccccc1)c1c(O)c2ccccc2oc1=O [R-Warfarin]
- Cmax, mean (CV%) ([18]; OSP (+)): 538 (15.4) ng/mL
- tmax, median (range) ([18]; OSP (+)): 4 (2–8) h
- AUC∞, mean (CV%) ([18]; OSP (+) 60 mg once daily): 32.8 (23.1) μg h/mL
- Cmax, mean (CV%) ([18]; OSP (−)): 518 (15.2) ng/mL
- tmax, median (range) ([18]; OSP (−)): 4 (2–6) h
- AUC∞, mean (CV%) ([18]; OSP (−)): 31.3 (21.7) μg h/mL

Structure (SMILES): O=C(c1ccc(OCCN2CCCCC2)cc1)c1c(-c2ccc(O)cc2)sc2cc(O)ccc12 [Raloxifene]
- Decrease of the prothrombin time of patients on warfarin [19]: 10%

Structure (SMILES): CC(=O)C[C@@H](c1ccccc1)c1c(O)c2ccccc2oc1=O [S-Warfarin, S-warfarin]
- Cmax, mean (CV%) ([18]; OSP (+)): 513 (13.3) ng/mL
- tmax, median (range) ([18]; OSP (+)): 4 (2–8) h
- AUC∞, mean (CV%) ([18]; OSP (+) 60 mg once daily): 19.2 (30.2) μg h/mL
- Cmax, mean (CV%) ([18]; OSP (−)): 497 (14.5) ng/mL
- tmax, median (range) ([18]; OSP (−)): 4 (2–6) h
- AUC∞, mean (CV%) ([18]; OSP (−)): 18.5 (29.9) μg h/mL

Structure (SMILES): CC(=O)CC(c1ccccc1)c1c(O)c2ccccc2oc1=O (centres unmarked) [warfarin]
- Tolerability [14]: well tolerated
